Results published in US4839358A, “Alpha-mercaptomethyl-benzene propanamides, pharmaceutical compositions and use” (Roussel Uclaf, priority 1987, dated 1989).

What was measured:
Enkephalinase = molecular target: T1, Enkephalinase (Rattus norvegicus, UniProt P07861); assay: Determination of the Inhibiting Effect of Enkephalinase (hydrolysis of succinyl-Ala-Ala-Phe-amino-methylcoumarine, fluorescence); type: biochemical; details: rat renal membrane; substrate 40 μM; pH 7.5; 37° C., 30 minutes; read-out: IC50 (concentration which inhibits the hydrolysis of the substrate by 50%)
T1 construct: from tissue; host or cells: rat kidney membranes (15,000 g particulate fraction, solubilised with octyl beta-D-glucopyranoside, 100,000 g supernatant)
T1 sequence (P07861 1-750): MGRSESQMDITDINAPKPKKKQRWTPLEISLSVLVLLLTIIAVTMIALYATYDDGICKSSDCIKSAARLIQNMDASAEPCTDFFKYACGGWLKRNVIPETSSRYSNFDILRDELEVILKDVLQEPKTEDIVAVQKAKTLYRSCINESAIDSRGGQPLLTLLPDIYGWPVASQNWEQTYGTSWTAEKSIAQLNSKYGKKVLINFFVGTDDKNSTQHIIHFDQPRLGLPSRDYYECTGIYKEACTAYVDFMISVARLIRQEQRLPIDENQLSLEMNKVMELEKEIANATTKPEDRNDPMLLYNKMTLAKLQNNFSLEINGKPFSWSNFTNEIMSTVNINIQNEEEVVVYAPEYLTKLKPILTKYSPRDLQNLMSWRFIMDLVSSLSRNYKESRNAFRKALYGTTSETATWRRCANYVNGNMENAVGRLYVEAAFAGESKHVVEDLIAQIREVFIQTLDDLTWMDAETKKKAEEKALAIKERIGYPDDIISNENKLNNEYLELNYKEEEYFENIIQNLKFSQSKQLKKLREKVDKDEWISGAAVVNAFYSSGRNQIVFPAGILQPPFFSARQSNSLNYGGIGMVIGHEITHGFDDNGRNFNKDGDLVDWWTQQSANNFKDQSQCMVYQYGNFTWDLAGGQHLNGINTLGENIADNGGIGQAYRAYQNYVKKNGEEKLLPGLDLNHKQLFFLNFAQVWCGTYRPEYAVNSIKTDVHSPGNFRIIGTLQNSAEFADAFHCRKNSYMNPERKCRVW
Procedure: The activity of enkephalinase was determined starting with a piece of renal membrane of a rat. The kidneys were removed on ice and homogenized in HEPES 0.05M buffer pH 7.5 containing magnesium chloride (50 times the volume). After a first centrifuging at 1,500 g, the particular fraction was obtained after centrifuging at 15,000 g for 20 minutes. The residue was then washed and suspended in HEPES buffer and kept at -20 C. A part of this membrane preparation was placed in the presence of octyl β-D-glucopyranoside (50 mM in final centrifuging) for 15 minutes 15 4° C. After centrifuging at 100,000 g for one hour, the supernatant was removed and frozen by aliquots at -20° C. The concentration in proteins was determined by the method with Comassie blue.
An aliquot of the protein fraction so prepared was pre-incubated at 25° C. for 10 minutes in HEPES 0.05M buffer pH 7.5 or in the presence of the test product. The substrate added was a non-natural enkephaline of the formula succinyl-Ala-Ala-Phe-amino-methylcoumarine (reference 1) (40 μM in final concentration): the incubation was continued at 37° C. for 30 minutes. The reaction was stopped by heating to 95° C. for 5 minutes and each incubate was centrifuged. A solution of aminopeptidase M (4 μM in final concentration) and of thiorphan (reference 2) (10^-5 M) was added to the supernatant and the mixture was taken to 37° C. for one hour. The reaction was stopped as previously described and the fluorescence of the 7-aminomethylcoumarineso produced was determined. The effect of the products under test was detemined by calculating the IC50 as the concentration which inhibits the hydrolysis of the substrate by 50%.

[1] = Analgesic activity: Stretching Caused by Acetic Acid in Mice; type: in vivo; details: Mus musculus, 0.5 h; oral, half-an-hour before 1% acetic acid 10 ml/kg intraperitoneal; 15 minutes observation; read-out: AD50 (active dose which enabled a reduction of 50% of the number of stretchings as compared with control animals)
Procedure: The test used was based on the fact reported by R. KOSTER et al [Fed. Proc. (1959), Vol. 18, p. 412] in which the intraperitoneal injection of acetic acid caused in mice repeated stretching and twisting movements which can persist for more than 6 hours. The analgesics prevent or diminish this syndrome which can be considered as the exteriorization of a diffuse abdominal pain. A 1% solution of acetic acid in water was used, administered at a rate of 10 ml/kg. The product studied was administered by oral route half-an-hour before injection of the acetic acid, the mice being without food for a minimum 6 hours. The stretchings were observed and counted for each mouse for an observation period of 15 minutes. The results were expressed as the AD50, that is to say, the active dose which enabled a reduction of 50% of the number of stretchings as compared with control animals. The AD50 found for the compound of Example 2 was 80 mg/kg.

[2] = Test of Anti-depressive Activity (duration of immobility, forced swimming); type: in vivo, Sprague Dawley rats; details: 20 mg/kg × 3, oral 24, 5 and 1 hour before test
Procedure: The tests were carried out on groups of 5 Sprague Dawley rats and the inexperienced animals were placed for 15 minutes in a vertical perspex cylinder (diameter: 18 cm, height: 40 cm) containing water at 25° C. to a height of 15 cm (initial swimming test). They were then dried for 15 minutes in an enclosure heated to 32° C. 24 hours later, they were replaced in the cylinder filled with water and the total duration of immobility was measured for 5 minutes. The compound was administered orally successively 24, 5 and 1 hour before the test. The first administration took place immediately after the initial swimming test, just before replacing the animals in their breeding box. The average of the groups treated were compared with those of the control group by the Dunnett test.

SMILES	IC50 (Enkephalinase) [nM]	ED50 [1] [mg/kg]	Duration of immobility ([2]; 5 minutes measured, control 232 ± 7) [s]	Duration of immobility, % variation ([2]; versus control group) [%]
O=C(NN1CCOCC1)C(CS)Cc1ccccc1 (stereo not drawn) [Example 2, α-mercaptomethyl-N-(4-morpholinyl)-benzene propanamide]	220	80	138 ± 20	-41
O=C(NN1CCCCCC1)C(CS)Cc1ccccc1 (stereo not drawn) [Example 8, N-(hexahydro-1H-azepinyl)-α-(mercaptomethyl)-benzene propanamide]	390	–	–	–
O=C(NN1CCCC1)C(CS)Cc1ccccc1 (stereo not drawn) [Example 10, α-mercaptomethyl-N-(1-pyrrolidinyl)-benzene propanamide]	71	–	–	–
O=C(NN1CCSCC1)C(CS)Cc1ccccc1 (stereo not drawn) [Example 12, α-mercaptomethyl-N-(tetrahydro-2H-1,4,-thiazin-4-yl)-benzene propanamide]	350	–	–	–
